Measured values as given in US20160060260A1, “BROMODOMAIN INHIBITORS FOR TREATING DISEASE” (Board of Regents, The University of Texas System, priority 2014, published 2016).

These compounds were tested against T1, Recombinant human His-tagged Trim24-PHD-bromodomain (Homo sapiens, UniProt O15164) (assay: Trim24 AlphaScreen Assay). Conditions: 5 nM Trim24 protein, 15 nM biotinylated H3K23ac (1-33aa) peptide.
T1 construct: Recombinant human His-tagged Trim24-PHD-bromodomain (produced in-house); made in house
T1 sequence (O15164 824-1006 limits assumed): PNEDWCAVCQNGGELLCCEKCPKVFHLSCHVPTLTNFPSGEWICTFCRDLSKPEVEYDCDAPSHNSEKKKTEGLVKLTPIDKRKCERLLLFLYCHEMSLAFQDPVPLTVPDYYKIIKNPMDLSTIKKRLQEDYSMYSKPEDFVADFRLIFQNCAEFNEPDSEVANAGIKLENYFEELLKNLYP
Type: binding
How it was run: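 AlphaScreen read-out after 2 h with streptavidin donor and Ni-chelate acceptor beads at 10 ug/mL each, following 1 h room-temperature incubation of compound, His-tagged PHD-bromodomain protein and biotin-H3K23ac (1-33aa) peptide in Hepes pH 7.5 buffer with NaCl and Triton X-100. Signals normalised between no-compound and no-protein wells; IC50 from four-parameter logistic curves.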

`CCCOc1cc(Oc2cc3c(cc2NS(=O)(=O)c2cn(C)cn2)n(C)c(=O)n3C)ccc1F` [Example 105, N-(6-(4-fluoro-3-propoxyphenoxy)-1,3-dimethyl-2-oxo-2,3-dihydro-1H-benzo[d]imidazol-5-yl)-1-methyl-1H-imidazole-4-sulfonamide] was tested. Which IC50 did it give?
Its IC50 is 10 to 100 nM.

With `C=CCOc1cccc(S(=O)(=O)Nc2cc3c(cc2Oc2cccc(OCCC)c2)n(C)c(=O)n3C)c1` [Example 106, 3-(allyloxy)-N-(1,3-dimethyl-2-oxo-6-(3-propoxyphenoxy)-2,.3-dihydro-1H-benzo[d]imidazol-5-yl)benzenesulfonamide] as the compound, how does the IC50 read?
The IC50 was 100 to 1000 nM.

`CCCOc1cc(C#N)cc(Oc2cc3c(cc2NS(=O)(=O)c2cn(C)c(C)n2)n(C)c(=O)n3C)c1` [Example 107, N-(6-(3-cyano-5-propoxyphenoxy)-1,3-dimethyl-2-oxo-2,3-dihydro-1H-benzo[d]imidazol-5-yl)-1,2-dimethyl-1H-imidazole-4-sulfonamide] was tested. Which IC50 did it give?
Its IC50 is 10 to 100 nM.

Which IC50 does the source give for `CCCOc1cc(C#N)cc(Oc2cc3c(cc2NS(=O)(=O)c2cn(C)cn2)n(C)c(=O)n3C)c1` [Example 108, N-(6-(3-cyano-5-propoxyphenoxy)-1,3-dimethyl-2-oxo-2,3-dihydro-1H-benzo[d]imidazol-5-yl)-1-methyl-1H-imidazole-4-sulfonamide] here?
The IC50 was 10 to 100 nM.

`CCCOc1cc(C#N)cc(Oc2cc3c(cc2NS(=O)(=O)c2ccc(OC)c(OC)c2)n(C)c(=O)n3C)c1` [Example 109, N-(6-(3-cyano-5-propoxyphenoxy)-1,3-dimethyl-2-oxo-2,3-dihydro-1H-benzo[d]imidazol-5-yl)-3,4-dimethoxybenzenesulfonamide] was tested. Which IC50 did it give?
The IC50 was 10 to 100 nM.

How did the IC50 turn out when `CCCOc1cccc(Oc2cc3c(cc2NS(=O)(=O)c2cn(C)cn2)n(C)c(=O)n3C)c1Cl` [Example 111, N-(6-(2-chloro-3-propoxyphenoxy)-1,3-dimethyl-2-oxo-2,3-dihydro-1H-benzo[d]imidazol-5-yl)-1-methyl-1H-imidazole-4-sulfonamide] was run?
The IC50 was over 1000 nM.

For `CCCOc1cc(Oc2cc3c(cc2NS(=O)(=O)c2cn(C)cn2)n(C)c(=O)n3C)ccc1Cl` [Example 112, N-(6-(4-chloro-3-propoxyphenoxy)-1,3-dimethyl-2-oxo-2,3-dihydro-1H-benzo[d]imidazol-5-yl)-1-methyl-1H-imidazole-4-sulfonamide], which IC50 is on record?
Its IC50 is 100 to 1000 nM.

Which IC50 does the source give for `CCCOc1ccc(OC)c(Oc2cc3c(cc2NS(=O)(=O)c2cn(C)cn2)n(C)c(=O)n3C)c1` [Example 113, N-(6-(2-methoxy-5-propoxyphenoxy)-1,3-dimethyl-2-oxo-2,3-dihydro-1H-benzo[d]imidazol-5-yl)-1-methyl-1H-imidazole-4-sulfonamide] here?
The IC50 was 100 to 1000 nM.

How did the IC50 turn out when `CCCOc1cc(Oc2cc3c(cc2NS(=O)(=O)c2cn(C)cn2)n(C)c(=O)n3C)ccc1OC` [Example 114, N-(6-(4-methoxy-5-propoxyphenoxy)-1,3-dimethyl-2-oxo-2,3-dihydro-1H-benzo[d]imidazol-5-yl)-1-methyl-1H-imidazole-4-sulfonamide] was run?
Its IC50 is over 1000 nM.

`Cn1cnc(S(=O)(=O)Nc2cc3c(cc2Oc2cc(OCC4CC4)cc(OCC4CC4)c2)n(C)c(=O)n3C)c1` [Example 117, N-(6-(3,5-bis(cyclopropylmethoxy)phenoxy)-1,3-dimethyl-2-oxo-2,3-dihydro-1H-benzo[d]imidazol-5-yl)-1-methyl-1H-imidazole-4-sulfonamide] was tested. Which IC50 did it give?
Its IC50 is 10 to 100 nM.

With `CCCOc1cc(OCC2CC2)cc(Oc2cc3c(cc2NS(=O)(=O)c2cccnc2)n(C)c(=O)n3C)c1` [Example 118, N-(6-(3-(cyclopropylmethoxy)-5-propoxyphenoxy)-1,3-dimethyl-2-oxo-2,3-dihydro-1H-benzo[d]imidazol-5-yl)pyridine-3-sulfonamide] as the compound, how does the IC50 read?
Its IC50 is 10 to 100 nM.

Which IC50 does the source give for `CCCOc1cc(OCCCCCCNC(=O)OC(C)(C)C)cc(Oc2cc3c(cc2NS(=O)(=O)c2cn(C)cn2)n(C)c(=O)n3C)c1` [Example 119, tert-butyl (6-(3-((1,3-dimethyl-6-((1-methyl-1H-imidazole)-4-sulfonamido)-2-oxo-2,3-dihydro-1H-benzo[d]imidazol-5-yl)oxy)-5-propoxyphenoxy)hexyl)carbamate] here?
Its IC50 is 100 to 1000 nM.

`COCCCOc1cc(C#N)cc(Oc2cc3c(cc2NS(=O)(=O)c2cn(C)c(C)n2)n(C)c(=O)n3C)c1` [Example 120, N-(6-(3-cyano-5-(3-methoxypropoxy)phenoxy)-1,3-dimethyl-2-oxo-2,3-dihydro-1H-benzo[d]imidazol-5-yl)-1,2-dimethyl-1H-imidazole-4-sulfonamide] was tested. Which IC50 did it give?
The IC50 was 100 to 1000 nM.

How did the IC50 turn out when `COCCCOc1cc(C#N)cc(Oc2cc3c(cc2NS(=O)(=O)c2ccn(C)n2)n(C)c(=O)n3C)c1` [Example 121, N-(6-(3-cyano-5-(3-methoxypropoxy)phenoxy)-1,3-dimethyl-2-oxo-2,3-dihydro-1H-benzo[d]imidazol-5-yl)-1-methyl-1H-pyrazole-3-sulfonamide] was run?
Its IC50 is 100 to 1000 nM.

How did the IC50 turn out when `COCCCOc1cc(OCCCOC)cc(Oc2cc3c(cc2NS(=O)(=O)c2ccc(OC)c(OC)c2)n(C)c(=O)n3C)c1` [Example 122, N-(6-(3,5-bis(3-methoxypropoxy)phenoxy)-1,3-dimethyl-2-oxo-2,3-dihydro-1H-benzo[d]imidazol-5-yl)-3,4-dimethoxybenzenesulfonamide] was run?
The IC50 was 10 to 100 nM.

For `COCCCOc1cc(OCCCOC)cc(Oc2cc3c(cc2NS(=O)(=O)c2cn(C)c(C)n2)n(C)c(=O)n3C)c1` [Example 123, N-(6-(3,5-bis(3-methoxypropoxy)phenoxy)-1,3-dimethyl-2-oxo-2,3-dihydro-1H-benzo[d]imidazol-5-yl)-1,2-dimethyl-1H-imidazole-4-sulfonamide], which IC50 is on record?
Its IC50 is 10 to 100 nM.

With `CCCOc1cc(OCCCC#N)cc(Oc2cc3c(cc2NS(=O)(=O)c2cn(C)c(C)n2)n(C)c(=O)n3C)c1` [Example 124, N-(6-(3-(3-cyanopropoxy)-5-propoxyphenoxy)-1,3-dimethyl-2-oxo-2,3-dihydro-1H-benzo[d]imidazol-5-yl)-1,2-dimethyl-1H-imidazole-4-sulfonamide] as the compound, how does the IC50 read?
The IC50 was 10 to 100 nM.

How did the IC50 turn out when `CCCOc1cc(OCC2CC2)cc(Oc2cc3c(cc2NS(=O)(=O)c2cn(C)cn2)n(C)c(=O)n3C)c1` [Example 126, N-(6-(3-(cyclopropylmethoxy)-5-propoxyphenoxy)-1,3-dimethyl-2-oxo-2,3-dihydro-1H-benzo[d]imidazol-5-yl)-1-methyl-1H-imidazole-4-sulfonamide] was run?
Its IC50 is 10 to 100 nM.

For `COc1ccc(S(=O)(=O)Nc2cc3c(cc2Oc2cccc(OCC4CC4)c2)n(C)c(=O)n3C)cc1OC` [Example 127, N-(6-(3-(cyclopropylmethoxy)phenoxy)-1,3-dimethyl-2-oxo-2,3-dihydro-1H-benzo[d]imidazol-5-yl)-3,4-dimethoxybenzenesulfonamide], which IC50 is on record?
The IC50 was 10 to 100 nM.

Which IC50 does the source give for `Cn1c(=O)n(C)c2cc(Oc3cccc(OCC4CC4)c3)c(NS(=O)(=O)c3cccnc3)cc21` [Example 128, N-(6-(3-(cyclopropylmethoxy)phenoxy)-1,3-dimethyl-2-oxo-2,3-dihydro-1H-benzo[d]imidazol-5-yl)pyridine-3-sulfonamide] here?
Its IC50 is 10 to 100 nM.

Which IC50 does the source give for `Cc1nc(S(=O)(=O)Nc2cc3c(cc2Oc2ccc(F)c(OCC4CC4)c2)n(C)c(=O)n3C)cn1C` [Example 130, N-(6-(3-(cyclopropylmethoxy)-4-fluorophenoxy)-1,3-dimethyl-2-oxo-2,3-dihydro-1H-benzo[d]imidazol-5-yl)-1,2-dimethyl-1H-imidazole-4-sulfonamide] here?
Its IC50 is over 1000 nM.

With `COc1ccc(S(=O)(=O)Nc2cc3c(cc2Oc2ccc(F)c(OCC4CC4)c2)n(C)c(=O)n3C)cc1OC` [Example 131, N-(6-(3-(cyclopropylmethoxy)-4-fluorophenoxy)-1,3-dimethyl-2-oxo-2,3-dihydro-1H-benzo[d]imidazol-5-yl)-3,4-dimethoxybenzenesulfonamide] as the compound, how does the IC50 read?
Its IC50 is 100 to 1000 nM.

How did the IC50 turn out when `Cn1c(=O)n(C)c2cc(Oc3cccc(OCC4CC4)c3)c(NS(=O)(=O)c3cn[nH]c3)cc21` [Example 132, N-(6-(3-(cyclopropylmethoxy)phenoxy)-1,3-dimethyl-2-oxo-2,3-dihydro-1H-benzo[d]imidazol-5-yl)-1H-pyrazole-4-sulfonamide] was run?
The IC50 was 100 to 1000 nM.

`CCCOc1ccc(F)c(Oc2cc3c(cc2NS(=O)(=O)c2cn(C)c(C)n2)n(C)c(=O)n3C)c1` [Example 133, N-(6-(2-fluoro-5-propoxyphenoxy)-1,3-dimethyl-2-oxo-2,3-ddihydro-1H-benzo[d]imidazol-5-yl)-1,2-dimethyl-1H-imidazole-4-sulfonamide] was tested. Which IC50 did it give?
The IC50 was 100 to 1000 nM.

How did the IC50 turn out when `CCCOc1ccc(F)c(Oc2cc3c(cc2NS(=O)(=O)c2ccc(OC)c(OC)c2)n(C)c(=O)n3C)c1` [Example 134, N-(6-(2-fluoro-5-propoxyphenoxy)-1,3-dimethyl-2-oxo-2,3-dihydro-1H-benzo[d]imidazol-5-yl)-3,4-dimethoxybenzenesulfonamide] was run?
Its IC50 is 10 to 100 nM.

Which IC50 does the source give for `CCCOc1ccc(F)c(Oc2cc3c(cc2NS(=O)(=O)c2cccnc2)n(C)c(=O)n3C)c1` [Example 135, N-(6-(2-fluoro-5-propoxyphenoxy)-1,3-dimethyl-2-oxo-2,3-dihydro-1H-benzo[d]imidazol-5-yl)pyridine-3-sulfonamide] here?
Its IC50 is 10 to 100 nM.

`Cc1n[nH]c(C)c1S(=O)(=O)Nc1cc2c(cc1Oc1cccc(OCC3CC3)c1)n(C)c(=O)n2C` [Example 136, N-(6-(3-(cyclopropylmethoxy)phenoxy)-1,3-dimethyl-2-oxo-2,3-dihydro-1H-benzo[d]imidazol-5-yl)-3,5-dimethyl-1H-pyrazole-4-sulfonamide] was tested. Which IC50 did it give?
Its IC50 is 10 to 100 nM.

How did the IC50 turn out when `CCCOc1cc(OCCCOC)cc(Oc2cc3c(cc2NS(=O)(=O)c2cccnc2)n(C)c(=O)n3C)c1` [Example 137, N-(6-(3-(3-methoxypropoxy)-5-propoxyphenoxy)-1,3-dimethyl-2-oxo-2,3-dihydro-1H-benzo[d]imidazol-5-yl)pyridine-3-sulfonamide] was run?
The IC50 was 10 to 100 nM.
